Measurements as given in patent US20090143761A1, “AGENT DELIVERY SYSTEM AND USES OF SAME” (T[…] COMPANY, LLC, priority 2005, published 2009).
“Also recorded” adds a separate entry of the source.

How the values were obtained:
[1] = oral administration of tablets; cited from earlier work
[2] = excised rabbit pinna skin; cited from earlier work
[3] = Calculated diffusion and mass transfer coefficients in membranes of different thickness; settings: Urea in 5.15% agar gel vs Urea, 1 mm layer
Description: A simplified model can be developed to account for the transport of molecules out of the skin and through the sampling chamber. The model consists of diffusion through the skin, which can be approximated by diffusion through a semi-porous protein matrix membrane and then diffusion into a bulk solution. The concentration profile in the membrane and in the bulk solution may not be consistent, in which case a partition coefficient can be used to relate the transport of molecules from the membrane to the bulk solution. The use of an iontophoretic device can, by nature of the process, produce an electric field. […]
The bulk phase diffusivity needs to be adjusted to take into account the winding path through a porous matrix. The effective diffusivity is calculated from the bulk diffusivity, void fraction, and the tortuosity. The mass transfer coefficient can be calculated from the effective diffusivity and the membrane thickness. The flux of molecules in the presence of an electrical charge can be calculated with the Nernst-plank equation.
To illustrate the effect of diffusion through a porous matrix a few calculations were performed as an example. Assuming a protein layer of 1 mm, the mass transfer coefficients were calculated for Urea (0.88 microns/s) and for Urea in a 5.15% agar gel (0.47 microns/s). […]

[4] = patients who are prescribed lithium; cited from earlier work
[5] = 52.8 mM and 105.6 mM donor
[6] = in vivo; cited from earlier work
[7] = lithium concentration of 158.4 mM, iontophoresis, mice
Description: First, the total charge delivered to the animal during the course of the experiment was determined.
The animal model employed was that of the SKH-1 male mouse, 6 weeks old, obtained from Charles River Laboratories. The mice arrived the morning of the experiments and were used within three hours of their arrival.
Due to the fragility of the iontophoresis pad application and electrode attachment, the mice had to be restrained during the experiments. To accomplish this, a commercial mouse restrainer was purchased from Kent Scientific and modified with two holders on either side of the restrainer. The holders were placed over existing access holes in the restrainer such that spring loaded electrodes could be positioned within the holder.
The mice were given a low dosage of Halothane to allow them to be weighed and positioned in the restrainer so that there was minimal risk of the electrode pads being kicked or scraped off of the patch as the mouse was being positioned. The Halothane was administered by saturating a paper towel that had been placed at the bottom of a glass desiccator jar. The jar was placed in an exhaust fume hood prior to opening the Halothane bottle. This gave a saturated Halothane environment, in a well-ventilated area, and allowed the effects of the anesthesia to be closely monitored. […]

humans = settings: cited from earlier work
[8] = cyclic voltammagrams
[9] = cited from earlier work
[10] = In-vitro transdermal delivery of primaquine patch across human epidermal membranes with iontophoresis
[11] = Stability of primaquine after exposure to iontophoresis, thin layer chromatography; settings: silica gel TLC, n-butanol:acetic acid:water (5:3:2)
plasma cholinesterase = molecular target: T1, plasma cholinesterase (Homo sapiens, UniProt P06276); assay: Selective inhibition of cholinesterase activity in plasma samples; format: biochemical; settings: quinidine 20 μM; BTC vs other substrate
T1 construct: confirming the capacity of the BTC substrate to detect cholinesterase activity in plasma; from tissue; host or cells: plasma
T1 sequence (P06276 29-602): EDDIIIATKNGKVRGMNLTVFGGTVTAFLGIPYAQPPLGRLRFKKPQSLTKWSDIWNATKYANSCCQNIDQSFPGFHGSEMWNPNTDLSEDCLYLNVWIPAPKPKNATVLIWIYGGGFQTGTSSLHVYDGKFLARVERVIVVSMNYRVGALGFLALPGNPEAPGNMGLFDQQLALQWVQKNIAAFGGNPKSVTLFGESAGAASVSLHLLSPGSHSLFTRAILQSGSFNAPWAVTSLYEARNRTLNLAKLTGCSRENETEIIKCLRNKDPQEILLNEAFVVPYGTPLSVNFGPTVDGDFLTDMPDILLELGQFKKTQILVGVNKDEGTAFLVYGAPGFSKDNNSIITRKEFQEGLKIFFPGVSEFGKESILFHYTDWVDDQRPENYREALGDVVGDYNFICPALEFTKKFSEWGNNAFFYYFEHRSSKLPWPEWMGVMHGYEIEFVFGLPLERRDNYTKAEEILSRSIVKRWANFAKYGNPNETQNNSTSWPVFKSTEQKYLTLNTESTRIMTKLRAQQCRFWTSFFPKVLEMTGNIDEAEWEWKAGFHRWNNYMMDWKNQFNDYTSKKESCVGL

Uremic rats = settings: intermittent administration; cited from earlier work

COC(=O)C(c1ccccc1)C1CCCCN1 (stereo not shown) [Methylphenidate]
bioavailability [1]: approximately 30%

NC(=O)[C@@H]1CCCN1C(=O)[C@H](Cc1cnc[nH]1)NC(=O)[C@@H]1CCC(=O)N1 [TRH, Thyrotropin-releasing hormone]
pulsed vs continuous current iontophoretic flux [2]: the pulsed iontophoretic flux exceeded that obtained with a continuous current

NC(N)=O [Urea]
decrease of mass transfer by addition of a gel matrix [3]: 47%

O=C([O-])[O-].[Li+].[Li+] [lithium, lithium carbonate]
patients who experience some adverse effects [4]: More than 80%
effect of donor compartment lithium carbonate concentration on receiver compartment lithium concentration [5]: caused an equivalent increase in the receiver compartment lithium concentration
plasma elimination half-life [6]: 12 to 27 h
serum concentration of lithium [7]: approximately 0.2 mM

CNC1(C)C2CCC(C2)C1(C)C (stereo not shown) [mecamylamine, Mecamylamine]
effect on self-reported effects of alcohol (humans): reduces the self-reported stimulant and euphoric effects of alcohol

CN1CCCC1c1cccnc1 (stereo not shown) [nicotine]
voltage at which nicotine is oxidized [8]: ~1 volt

COc1cc(NC(C)CCCN)c2ncccc2c1 (stereo not shown) [primaquine]
share of the 10 mg dose delivered passively each hour ([9]; passive delivery): Approximately 5%
amount of primaquine delivered transdermally ([9]; within 24 hours, to achieve therapeutic plasma concentrations): 10 mg
passive diffusion of primaquine before and after iontophoresis ([10]; epidermal membrane, receptor PBS pH 7.4, no current applied): Minimal passive diffusion
amount of primaquine delivered using electrotransport ([10]; in 40 minutes): 160 µg
stability of the primaquine molecule after exposure to iontophoresis (TLC of receptor compartment contents) [11]: intact primaquine is present; also recorded: there is more than one species of molecule present

C=C[C@H]1C[N@@]2CC[C@H]1C[C@@H]2[C@@H](O)c1ccnc2ccc(OC)cc12 [quinidine]
inhibitory effect on cholinesterase activity in plasma samples (plasma cholinesterase): the inhibitory effect was observed only when BTC was used

PTH(1-37): parathyroid hormone fragment given intermittently to Uremic rats (AVSEIQLMHNLGKHLASVERMQWLRKKLQDVHNFVSL; Parathyroid hormone; UniProt P04089 32-68, looked up, fragment)
effect on growth and bone mineral density (Uremic rats): improves growth and bone mineral density
